Patent publication US20260271949A1, “PHOTOSENSITIZER COMPOSITIONS, DEVICES, AND METHODS OF USE FOR SURFACE SANITIZATION OF PROCESSED FOOD PRODUCTS” (ONDINE INTERNATIONAL AG, priority 2023, published 2026)

Legend:
S. enterica biofilms [1] = assay: Quantitative determination of MBEC (Log10 reduction assay); type: cell-based, Salmonella enterica; settings: for concentration of optimal efficacy: S. enterica biofilm; for Quant. MBEC / log 10 reduction in biofilm CFUs: S. enterica; for Quant. MBEC: >3 log10 reduction or max kill, PS alone, Blue 470 nm (Erythrosin B: Green 527 nm)
Procedure: (§1) One hundred microlitres was removed from each well of row A of the recovery plate into row A of an appropriately labelled 96-well dilution plate; 100 μL was removed from row B of this recovery plate into row A of another 96-well dilution plate. This was repeated for other utilized MBEC rows (total: up to 8 dilution plates per MBEC recovery plate). These plates were kept for the “Quantitative Determination of MBEC (Log10 Reduction Assay)” described below.
(§2) 180 μL of sterile 0.9% saline was added to each well of rows B-H of the 96-well dilution plates prepared as described above. The sample in row A was then serially diluted in the saline in rows B-H and spot plated on OSA.
(§3) The quantitative MBEC was defined as the minimum concentration of test article that yielded a particular log 10 reduction in biofilm CFUs. For MRSA, >4 log 10 reduction (which corresponds to >99.99% reduction); for S. enterica, >3 log 10 reduction (which corresponds to >99.9% reduction) or, where recovery from the VC controls was <3 log 10, “max kill”.
(§4) Quantitative MBEC results were determined using log 10 reduction. Generally, the appropriate number of colonies were counted on the spot plates according to the plating method used. An appropriate number of colonies that was considered appropriate for counting was a 20 μL spot where the individual colonies were visibly distinct from each other within the plated spot (typically 5-50 colonies). The section in which this spot was located gave the order of magnitude for the cell enumeration: 100-107.

S. enterica biofilms [2] = assay: MBEC (turbidity assay), biofilm recovery plate; type: cell-based, Salmonella enterica; settings: Blue 470 nm (Erythrosin B: Green 527 nm)
Procedure: (§5) The saturated bacterial cultures were diluted 1:10,000 to an approximate density of 10^5 CFU/mL. Density was confirmed by an inoculum check. The inoculum was poured into a sterile reagent reservoir. Using a multi-channel pipette, 200 μL of the ~105 inoculum was added to each well from rows A to G of the MBEC™ device, as indicated in FIGS. 2A-2C (12 devices per organism were tested; 4 devices per study day), 200 μL of OSB was added to row H to act as sterility controls (SC). The pegged lid was then placed into the microtiter plate and sealed in a plastic bag.
(§6) The pegs of the MBEC lid were rinsed for 120 seconds.
(§7) Using additional sterile 96-well receiver plates, recovery plates were prepared (one per MBEC lid) containing 225 μL per well of the neutralizer/recovery broth, as described above. The MBEC lids were transferred to the recovery broth, and the plates (with the pegged lids) were transferred into a stainless-steel insert tray, which sat in the water of a bath sonicator. Sonication was performed on high for 30 minutes to dislodge surviving biofilm. The pegged lid was then removed and discarded.
(§8) 125 μL of OSB was added to each well of the recovery plates to top back up to 225 µL per well. The contents of the wells were mixed by pipetting up and down.

[3] = tested on: Staphylococcus aureus (MRSA) 456 S. Yanke; assay: Planktonic MBC (turbidity assay), MBEC Assay challenge plate outgrowth; settings: Blue 470 nm (Erythrosin B: Green 527 nm)
MRSA biofilms [4] = assay: MBEC (turbidity assay), biofilm recovery plate; type: cell-based, Staphylococcus aureus; settings: Blue 470 nm (Erythrosin B: Green 527 nm)
Procedure: as §5, §6, §7, §8

[5] = tested on: Salmonella enterica Serotype Choleraesuis (ATCC 10708); assay: Planktonic MBC (turbidity assay), MBEC Assay challenge plate outgrowth; type: cell-based; settings: S. enterica, PS alone, Blue 470 nm (Erythrosin B: Green 527 nm)
MRSA biofilms [6] = assay: Quantitative determination of MBEC (Log10 reduction assay); type: cell-based, Staphylococcus aureus; settings: for concentration of optimal efficacy: MRSA biofilm; for Quant. MBEC / log 10 reduction in biofilm CFUs: MRSA; for Quant. MBEC: >4 log10 reduction, PS alone, Blue 470 nm (Erythrosin B: Green 527 nm)
Procedure: as §1, §2, §3, §4

[7] = Coloration of challenge plates under green irradiation; type: physicochemical; settings: green irradiation 2, 5, 10 min vs dark, most evident for 0.01% and 0.001%
Procedure: FIG. 5 provides representative photographs showing coloration of challenge plates for the Green-irradiated PS (Erythrosin B) under dark conditions and with green irradiation for 2 min, 5 min and 10 min. The highest tested concentration of Erythrosin B (i.e., 1% w/v) was beet red in color, with the 1:1,000 dilution (i.e., 0.001% w/v) yielding a light pink color and minimal coloration remaining by the 1:10,000 dilution (i.e., 0.0001% w/V) (FIG. 5; left).

[8] = Blue-irradiated, tested individually (FIG. 7 Panels A-C)
[9] = PS at 0.1%, 5 minutes of blue irradiation (51.0 J/cm^2)
[10] = fluence 0 (Dark) J/cm^2, PS alone
[11] = Blue-irradiated, tested individually (FIG. 8 Panels A-C)
[12] = PS at 0.01%, 10 minutes of green irradiation (51.0 J/cm^2)
[13] = PS at 0.1%, 5 minutes of green irradiation (25.5 J/cm^2)

Structure (SMILES)	concentration of optimal efficacy (S. enterica biofilms [1]; [8]) [% w/v]	Quant. MBEC (S. enterica biofilms [1]; fluence 0 (Dark) J/cm^2) [% w/V]	Quant. MBEC (S. enterica biofilms [1]; fluence 10.2 J/cm^2) [% w/V]	Quant. MBEC (S. enterica biofilms [1]; fluence 25.5 J/cm^2) [% w/V]	Quant. MBEC (S. enterica biofilms [1]; fluence 51.0 J/cm^2) [% w/V]	MBEC (S. enterica biofilms [2]; [10]) [% w/V]	MBEC (S. enterica biofilms [2]; fluence 10.2 J/cm^2, PS alone)	MBEC (S. enterica biofilms [2]; fluence 25.5 J/cm^2, PS alone)	MBC [3, 10] [% w/V]	MBC ([3]; fluence 10.2 J/cm^2, PS alone) [% w/V]	MBC ([3]; fluence 25.5 J/cm^2, PS alone)	MBEC (MRSA biofilms [4]; [10]) [% w/V]	MBEC (MRSA biofilms [4]; fluence 10.2 J/cm^2, PS alone) [% w/V]	MBEC (MRSA biofilms [4]; fluence 25.5 J/cm^2, PS alone) [% w/V]	MBC ([5]; fluence 0 (Dark) J/cm^2) [% w/V]	MBC ([5]; fluence 10.2 J/cm^2)	MBC ([5]; fluence 25.5 J/cm^2) [% w/V]	concentration of optimal efficacy (MRSA biofilms [6]; [11]) [% w/v]	Quant. MBEC (MRSA biofilms [6]; fluence 0 (Dark) J/cm^2) [% w/V]	Quant. MBEC (MRSA biofilms [6]; fluence 10.2 J/cm^2) [% w/V]	further results
Cc1cc2nc3c(=O)[nH]c(=O)nc-3n(C[C@H](O)[C@H](O)[C@H](O)COP(=O)([O-])O)c2cc1C.[Na+] [PS1, Riboflavin-5′-Phosphate Sodium USP]	0.1	>1	>1	>1	0.1	>1	>1 % w/V	>1 % w/V	>1	>1	0.1 (Ø) % w/V	>1	>1	>1	>1	>1 % w/V	>1	0.1	>1	>1	log 10 reduction in biofilm CFUs (S. enterica biofilms [1]; [9]): max kill; MBEC (MRSA biofilms [4]; fluence 51.0 J/cm^2, PS alone): 0.1 (Ø) % w/V; Quant. MBEC (MRSA biofilms [6]; fluence 25.5 J/cm^2): >1 % w/V; Quant. MBEC (MRSA biofilms [6]; fluence 51.0 J/cm^2): 0.1 % w/V; log 10 reduction in biofilm CFUs (MRSA biofilms [6]; [9]): 5.36 log 10
O=S(=O)([O-])c1ccc(N=Nc2c(O)ccc3cc(S(=O)(=O)[O-])ccc23)cc1.[Na+].[Na+] [PS2, Sunset Yellow FCF]	0.001	>1	>1	>1	0.001	>1	>1 % w/V	>1 % w/V	>1	>1	>1 % w/V	>1	>1	>1	>1	>1 % w/V	>1	0.01	>1	>1	Quant. MBEC (MRSA biofilms [6]; fluence 25.5 J/cm^2): >1 % w/V; Quant. MBEC (MRSA biofilms [6]; fluence 51.0 J/cm^2): 0.01 % w/V
COc1cc(/C=C/C(=O)CC(=O)/C=C/c2ccc(O)c(OC)c2)ccc1O [PS3, Curcumin]	0.0001	>0.001	>0.001	>0.001	0.0001	>0.001	>0.001 % w/V	>0.001 % w/V	>0.001	>0.001	>0.001 % w/V	>0.001	>0.001	>0.001	>0.001	>0.001 % w/V	>0.001	0.001	>0.001	>0.001	MBEC (S. enterica biofilms [2]; fluence 51.0 J/cm^2, PS alone): >0.001 % w/V; MBEC (MRSA biofilms [4]; fluence 51.0 J/cm^2, PS alone): >0.001 % w/V; MBC ([5]; fluence 51.0 J/cm^2): >0.001 % w/V; Quant. MBEC (MRSA biofilms [6]; fluence 25.5 J/cm^2): >0.001 % w/V; Quant. MBEC (MRSA biofilms [6]; fluence 51.0 J/cm^2): 0.001 % w/V
O=C1OC2(c3ccccc31)c1cc(I)c(O)c(I)c1Oc1c2cc(I)c(O)c1I [PS4, Erythrosin B]		>1	>1	0.1	0.01	>1	0.01 (Ø) % w/V	0.01 (Ø) % w/V				>1			>1	0.01 (Ø) % w/V			>1	0.01	concentration of optimal efficacy (S. enterica biofilms [1]; Green irradiation, 51.0 J/cm^2 (FIG. 9)): 0.01%; log 10 reduction in biofilm CFUs (S. enterica biofilms [1]; [12]): max kill; log 10 reduction in biofilm CFUs (S. enterica biofilms [1]; [13]): max kill; coloration upon irradiation [7]: lost coloration with increasing irradiation time; concentration of optimal efficacy (MRSA biofilms [6]; Green irradiation, 10.2 J/cm^2 (FIG. 9)): 0.01%; concentration of optimal efficacy (MRSA biofilms [6]; Green irradiation, 25.5 J/cm^2 (FIG. 9)): 0.1%; log 10 reduction in biofilm CFUs (MRSA biofilms [6]; [12]): max kill; log 10 reduction in biofilm CFUs (MRSA biofilms [6]; [13]): 5.28 log 10
